Data taken from ChEMBL document CHEMBL4033720, “Discovery of novel cyclic peptide inhibitors of dengue virus NS2B-NS3 protease with antiviral activity” (Bioorg Med Chem Lett, 2017).
Where a SMILES comes first, the peptide text is derived from it.

Experiments:
[1] = Inhibition of dengue virus 2 NS2B-NS3 protease pre-incubated for 10 mins before Boc-Gly-Arg-Arg-peptidyl-4-methylcoumaryl-7-amide substrate addition and measured after 2 hrs by fluorescence based assay; parameters: species or system dengue virus type 2
dengue virus type 2 = assay: Antiviral activity against dengue virus 2 infected in BHK21 cells assessed as inhibition of virus-induced cytopathic effect after 4 days by resazurin dye based method; assay type: functional, cell-based
[2] = Toxicity in BHK21 cells assessed a reduction in cell viability after 4 days by resazurin dye based method; parameters: species or system Mesocricetus auratus, BHK-21; conditions: hamster
[3] = Selectivity index, ratio of CC50 for toxicity in BHK21 cells to EC50 for antiviral activity against dengue virus 2 infected in BHK21 cells; assay type: cell-based; conditions: hamster, read-out: Ratio CC50/EC50
[4] = Stability assessed as dengue virus 2 NS2B-NS3 protease-mediated compound degradation by measuring linear peptide with P1 C-terminus and P' N-terminus at 200 uM in presence of […] incubated for 0 to 22.5 hrs by LC-MS method; assay type: ADME; conditions: dengue virus type 2, 200 µM
[5] = Stability assessed as dengue virus 2 NS2B-NS3 protease-mediated compound degradation at 200 uM in presence of […] incubated for 0 to 22.5 hrs by LC-MS method; assay type: ADME; conditions: dengue virus type 2, 200 µM
[6] = Dengue virus, BHK-21, 96 h, read-out: EC50

Structure (SMILES): C[C@@H]1NC(=O)[C@H](CCc2ccccc2)NC(=O)[C@H](CO)NC(=O)[C@H](CCCCN)NC(=O)[C@H](CCCNC(=N)N)NC(=O)[C@H](CCCCN)NC(=O)CNC(=O)[C@@H](c2ccccc2)NC1=O
- IC50 [1]: 15.1 µM

Structure (SMILES): C[C@@H]1NC(=O)[C@H](CCc2ccccc2)NC(=O)[C@H](CO)NC(=O)[C@H](CCCCN)NC(=O)[C@H](CCCNC(=N)N)NC(=O)[C@H](CCCCN)NC(=O)CNC(=O)[C@H](c2ccccc2)NC1=O
- IC50 [1]: 22.2 µM

Structure (SMILES): N=C(N)NCCC[C@@H]1NC(=O)[C@H](CCCNC(=N)N)NC(=O)[C@@H](CCCNC(=N)N)NC(=O)[C@@H](CCCNC(=N)N)NC(=O)[C@H](CO)NC(=O)[C@H](Cc2ccc(-c3ccccc3)cc2)NC(=O)[C@H](CO)NC(=O)[C@H](CCCCN)NC1=O
- IC50 [1]: 2.3 µM
- EC50 (dengue virus type 2; [6]): 141 µM
- CC50 at 96 h [2]: > 400 µM

Structure (SMILES): C[C@H]1NC(=O)[C@@H](Cc2ccccc2)NC(=O)[C@H](CO)NC(=O)[C@H](CCc2ccccc2)NC(=O)[C@H](CO)NC(=O)[C@H](CCCCN)NC(=O)[C@H](CCCNC(=N)N)NC(=O)[C@H](CCCCN)NC1=O
- IC50 [1]: 3.3 µM

Structure (SMILES): C[C@@H]1NC(=O)[C@H](CCc2ccccc2)NC(=O)[C@H](CO)NC(=O)[C@H](CCCCN)NC(=O)[C@H](CCCNC(=N)N)NC(=O)[C@H](CCCCN)NC(=O)CNC(=O)[C@H](CCc2ccccc2)NC1=O
- IC50 [1]: 25.6 µM

Structure (SMILES): C[C@@H]1NC(=O)[C@H](CS)NC(=O)[C@@H](CCc2ccccc2)NC(=O)[C@H](CO)NC(=O)[C@H](CCCCN)NC(=O)[C@H](CCCNC(=N)N)NC(=O)[C@H](CCCCN)NC(=O)CNC1=O
- IC50 [1]: 38.7 µM

Structure (SMILES): C[C@@H]1NC(=O)[C@H](CS)NC(=O)[C@H](CCc2ccccc2)NC(=O)[C@H](CO)NC(=O)[C@H](CCCCN)NC(=O)[C@H](CCCNC(=N)N)NC(=O)[C@H](CCCCN)NC(=O)CNC1=O
- IC50 [1]: 9.2 µM

Structure (SMILES): C[C@@H]1NC(=O)[C@H](CS)NC(=O)CNC(=O)[C@H](CO)NC(=O)[C@H](CCCCN)NC(=O)[C@H](C)NC(=O)[C@H](CCCCN)NC(=O)CNC1=O (HELM PEPTIDE1{A.G.K.A.K.S.G.C}$PEPTIDE1,PEPTIDE1,1:R1-8:R2$$$V2.0)
- IC50 [1]: > 200 µM

Structure (SMILES): C[C@@H]1NC(=O)CNC(=O)[C@H](CO)NC(=O)[C@H](CCCCN)NC(=O)[C@H](CCCNC(=N)N)NC(=O)[C@H](CCCCN)NC(=O)CNC(=O)[C@H](C)NC1=O (HELM PEPTIDE1{A.A.G.K.R.K.S.G}$PEPTIDE1,PEPTIDE1,1:R1-8:R2$$$V2.0)
- IC50 [1]: 57.4 µM

Structure (SMILES): N=C(N)NCCC[C@@H]1NC(=O)[C@H](CCCNC(=N)N)NC(=O)[C@H]2CCCN2C(=O)[C@@H](Cc2ccccc2)NC(=O)[C@H](CO)NC(=O)[C@H](Cc2ccc(-c3ccccc3)cc2)NC(=O)[C@H](CO)NC(=O)[C@H](CCCCN)NC1=O
- IC50 [1]: 3.8 µM
- EC50 (dengue virus type 2; [6]): 108 µM
- CC50 at 96 h [2]: > 400 µM

Structure (SMILES): C[C@@H]1NC(=O)[C@H](CS)NC(=O)CNC(=O)[C@H](CO)NC(=O)[C@H](C)NC(=O)[C@H](CCCNC(=N)N)NC(=O)[C@H](CCCCN)NC(=O)CNC1=O (HELM PEPTIDE1{A.G.K.R.A.S.G.C}$PEPTIDE1,PEPTIDE1,1:R1-8:R2$$$V2.0)
- IC50 [1]: > 200 µM

Structure (SMILES): N=C(N)NCCC[C@@H]1NC(=O)[C@H](CCCNC(=N)N)NC(=O)[C@@H](CCCNC(=N)N)NC(=O)[C@@H](Cc2ccc3ccccc3c2)NC(=O)[C@H](Cc2ccccc2)NC(=O)[C@H](CCc2ccccc2)NC(=O)[C@@H](Cc2ccccc2)NC(=O)[C@H](CCCCN)NC1=O
- IC50 [1]: 1.7 µM
- EC50 (dengue virus type 2; [6]): 4.6 µM
- CC50 at 96 h [2]: 86 µM

Structure (SMILES): N=C(N)NCCC[C@@H]1NC(=O)[C@H](CCCNC(=N)N)NC(=O)[C@@H](CCCNC(=N)N)NC(=O)[C@@H](Cc2ccccc2)NC(=O)[C@H](Cc2ccc3ccccc3c2)NC(=O)[C@H](CCc2ccccc2)NC(=O)[C@H](CO)NC(=O)[C@H](CCCCN)NC1=O
- IC50 [1]: 1.5 µM
- EC50 (dengue virus type 2; [6]): 48.5 µM
- CC50 at 96 h [2]: 210 µM

Structure (SMILES): C[C@@H]1NC(=O)[C@H](CCc2ccccc2)NC(=O)[C@H](CO)NC(=O)[C@H](CCCCN)NC(=O)[C@H](CCCNC(=N)N)NC(=O)[C@H](CCCCN)NC(=O)CNC(=O)[C@@H](CCc2ccccc2)NC1=O
- IC50 [1]: 16.2 µM

Structure (SMILES): N=C(N)NCCC[C@@H]1NC(=O)[C@H](CCCCN)NC(=O)[C@H]2CCCN2C(=O)[C@@H](Cc2ccccc2)NC(=O)[C@H](CO)NC(=O)[C@H](Cc2ccc(-c3ccccc3)cc2)NC(=O)[C@H](CO)NC(=O)[C@H](CCCCN)NC1=O
- IC50 [1]: 3.8 µM
- EC50 (dengue virus type 2; [6]): 293 µM
- CC50 at 96 h [2]: > 400 µM

Structure (SMILES): C[C@@H]1NC(=O)[C@H](C)NC(=O)[C@H](CCc2ccccc2)NC(=O)[C@H](CO)NC(=O)[C@H](CCCCN)NC(=O)[C@H](CCCNC(=N)N)NC(=O)[C@H](CCCCN)NC(=O)CNC1=O (HELM PEPTIDE1{A.A.G.K.R.K.S.[O=C([C@H](CCc1ccccc1)N[*:1])[*:2]]}$PEPTIDE1,PEPTIDE1,1:R1-8:R2$$$V2.0)
- IC50 [1]: 18.4 µM

Structure (SMILES): C[C@@H]1NC(=O)[C@H](CS)NC(=O)CNC(=O)[C@H](C)NC(=O)[C@H](CCCCN)NC(=O)[C@H](CCCNC(=N)N)NC(=O)[C@H](CCCCN)NC(=O)CNC1=O (HELM PEPTIDE1{A.G.C.A.G.K.R.K}$PEPTIDE1,PEPTIDE1,1:R1-8:R2$$$V2.0)
- IC50 [1]: > 200 µM

Structure (SMILES): C[C@@H]1NC(=O)CNC(=O)[C@H](C)NC(=O)[C@H](CS)NC(=O)CNC(=O)[C@H](CO)NC(=O)[C@H](CCCCN)NC(=O)[C@H](CCCNC(=N)N)NC1=O (HELM PEPTIDE1{A.G.A.R.K.S.G.C}$PEPTIDE1,PEPTIDE1,1:R1-8:R2$$$V2.0)
- IC50 [1]: > 200 µM

Structure (SMILES): N=C(N)NCCC[C@@H]1NC(=O)[C@H](CCCCN)NC(=O)[C@@H]2CCCN2C(=O)[C@@H](Cc2ccccc2)NC(=O)[C@H](CO)NC(=O)[C@H](CCc2ccccc2)NC(=O)[C@H](CO)NC(=O)[C@H](CCCCN)NC1=O
- IC50 [1]: 52 µM

Structure (SMILES): N=C(N)NCCC[C@@H]1NC(=O)[C@H](CCCNC(=N)N)NC(=O)[C@@H](CCCNC(=N)N)NC(=O)[C@@H](Cc2ccccc2)NC(=O)[C@H](CO)NC(=O)[C@H](Cc2ccc(-c3ccccc3)cc2)NC(=O)[C@H](CO)NC(=O)[C@H](CCCCN)NC1=O
- IC50 [1]: 3.7 µM
- EC50 (dengue virus type 2; [6]): 87.5 µM
- CC50 at 96 h [2]: > 400 µM

Structure (SMILES): C[C@@H]1NC(=O)[C@H](CCc2ccccc2)NC(=O)[C@H](CO)NC(=O)[C@H](CCCCN)NC(=O)[C@H](CCCNC(=N)N)NC(=O)[C@H](CCCCN)NC(=O)CNC(=O)[C@H](Cc2ccccc2)NC1=O
- IC50 [1]: 19.8 µM

Structure (SMILES): N=C(N)NCCC[C@@H]1NC(=O)[C@H](CCCNC(=N)N)NC(=O)[C@@H](CCCNC(=N)N)NC(=O)[C@@H](Cc2ccc3ccccc3c2)NC(=O)[C@H](Cc2ccccc2)NC(=O)[C@H](CCc2ccccc2)NC(=O)[C@@H](Cc2ccc3ccccc3c2)NC(=O)[C@H](CCCCN)NC1=O
- IC50 [1]: 1.1 µM
- EC50 (dengue virus type 2; [6]): 2 µM
- CC50 at 96 h [2]: 24 µM
- selectivity ratio [3]: > 10

Structure (SMILES): C[C@@H]1NC(=O)[C@H](CS)NC(=O)[C@H](Cc2ccccc2)NC(=O)[C@H](CO)NC(=O)[C@H](CCCCN)NC(=O)[C@H](CCCNC(=N)N)NC(=O)[C@H](CCCCN)NC(=O)CNC1=O (HELM PEPTIDE1{A.G.K.R.K.S.F.C}$PEPTIDE1,PEPTIDE1,1:R1-8:R2$$$V2.0)
- IC50 [1]: 39.3 µM

Structure (SMILES): N=C(N)NCCC[C@@H]1NC(=O)[C@H](CCCNC(=N)N)NC(=O)[C@@H](CCCNC(=N)N)NC(=O)[C@@H](Cc2ccccc2)NC(=O)[C@H](Cc2cccc3ccccc23)NC(=O)[C@H](CCc2ccccc2)NC(=O)[C@H](CO)NC(=O)[C@H](CCCCN)NC1=O
- IC50 [1]: 1.6 µM
- EC50 (dengue virus type 2; [6]): 23.2 µM
- CC50 at 96 h [2]: 233 µM
- Drug metabolism [4]: Metabolite_Detected
- Stability [5]: Unstable

Structure (SMILES): C[C@@H]1NC(=O)[C@@H](Cc2ccccc2)NC(=O)[C@H](CO)NC(=O)[C@H](CCc2ccccc2)NC(=O)[C@H](CO)NC(=O)[C@H](CCCCN)NC(=O)[C@H](CCCNC(=N)N)NC(=O)[C@H](CCCCN)NC1=O
- IC50 [1]: 28.5 µM

Structure (SMILES): N=C(N)NCCC[C@@H]1NC(=O)[C@H](CCCCN)NC(=O)CNC(=O)[C@@H](Cc2ccccc2)NC(=O)[C@H](CO)NC(=O)[C@H](CCc2ccccc2)NC(=O)[C@H](CO)NC(=O)[C@H](CCCCN)NC1=O
- IC50 [1]: 5 µM

Structure (SMILES): N=C(N)NCCC[C@@H]1NC(=O)[C@H](CCCCN)NC(=O)[C@H]2CCCN2C(=O)[C@@H](Cc2ccccc2)NC(=O)[C@H](CO)NC(=O)[C@H](Cc2ccc3ccccc3c2)NC(=O)[C@H](CO)NC(=O)[C@H](CCCCN)NC1=O
- IC50 [1]: 2.6 µM
- EC50 (dengue virus type 2; [6]): 306 µM
- CC50 at 96 h [2]: > 400 µM

Structure (SMILES): C[C@@H]1NC(=O)[C@H](CS)NC(=O)[C@H](c2ccccc2)NC(=O)[C@H](CO)NC(=O)[C@H](CCCCN)NC(=O)[C@H](CCCNC(=N)N)NC(=O)[C@H](CCCCN)NC(=O)CNC1=O (HELM PEPTIDE1{A.G.K.R.K.S.[Phg].C}$PEPTIDE1,PEPTIDE1,1:R1-8:R2$$$V2.0)
- IC50 [1]: 22.1 µM

Structure (SMILES): N=C(N)NCCC[C@@H]1NC(=O)[C@H](CCCCN)NC(=O)[C@H]2CCCN2C(=O)[C@@H](Cc2ccccc2)NC(=O)[C@H](CO)NC(=O)[C@H](CCc2ccccc2)NC(=O)[C@H](CO)NC(=O)[C@H](CCCCN)NC1=O
- IC50 [1]: 0.95 µM
- EC50 (dengue virus type 2): Not Active
- Stability [5]: Unstable

Structure (SMILES): C[C@@H]1NC(=O)[C@H](CS)NC(=O)CNC(=O)[C@H](CO)NC(=O)[C@H](CCCCN)NC(=O)[C@H](CCCNC(=N)N)NC(=O)[C@H](CCCCN)NC(=O)CNC1=O (HELM PEPTIDE1{A.G.K.R.K.S.G.C}$PEPTIDE1,PEPTIDE1,1:R1-8:R2$$$V2.0)
- IC50 [1]: 114 µM

Structure (SMILES): C[C@@H]1NC(=O)[C@H](CCc2ccccc2)NC(=O)[C@H](CO)NC(=O)[C@H](CCCCN)NC(=O)[C@H](CCCNC(=N)N)NC(=O)[C@H](CCCCN)NC(=O)CNC(=O)[C@@H](Cc2ccccc2)NC1=O
- IC50 [1]: 7.6 µM
